Test results as given in ChEMBL document CHEMBL1201862, “PubChem BioAssay data set” (2004).
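Five concentrations, 48 hours, 96-well plates. At the GI50, growth is halved.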 Activity calls are given as the source filed them. Cut-off read from the data, not from the text of the source: active = GI50 up to about 1.1 µM and inactive = higher. *1 amine or outer side, *2 acyl side, *3 side chain or, on linkers, in order; H or OH if unused. Where a SMILES comes first, the peptide text is derived from it. Bridges are numbered along the chain shown (N, C = ends). [ ]: non-standard residue; d: D form. The star is where a group is joined. X36 = O=C(C(CCCCNO[*:3])N[*:1])[*:2]; Fmoc = O=C(OCC1c2ccccc2-c2ccccc21)*

How the values were obtained:
Experiment in all cases: NCI tumour cell line growth inhibition, 48 h
CAKI-1 = system: CAKI-1
CCRF-CEM = system: CCRF-CEM
COLO 205 = system: COLO 205
HCC 2998 = system: HCC 2998
LOX IMVI = system: LOX IMVI
MOLT-4 = system: MOLT-4
OVCAR-4 = system: OVCAR-4
OVCAR-8 = system: OVCAR-8
RPMI-8226 = system: RPMI-8226
RXF 393 = system: RXF 393
SK-MEL-28 = system: SK-MEL-28
SK-MEL-2 = system: SK-MEL-2
SK-OV-3 = system: SK-OV-3
SNB-19 = system: SNB-19
SW-620 = system: SW-620
UACC-257 = system: UACC-257
Hs-578T = system: Hs-578T
MDA-MB-231 = system: MDA-MB-231
NCI/ADR-RES = system: NCI/ADR-RES

Measured: GI50

N#C/C(=C\c1ccc[nH]1)C(=O)c1ccccc1
inactive: CAKI-1 > 100 µM | CCRF-CEM > 100 µM | COLO 205 > 100 µM | HCC 2998 > 100 µM | LOX IMVI > 100 µM | MOLT-4 > 100 µM | OVCAR-4 > 100 µM | OVCAR-8 > 100 µM | RPMI-8226 > 100 µM | RXF 393 58.9 µM | SK-MEL-28 > 100 µM | SK-MEL-2 > 100 µM | SK-OV-3 > 100 µM | SNB-19 > 100 µM | SW-620 > 100 µM | UACC-257 > 100 µM

CC(=O)NC1C(OC2C(CO)OC(OCC3OC(n4ccc(N)nc4=O)C(O)C3O)C(NC(C)=O)C2O)OC(CO)C(O)C1O (stereo unspecified)
inactive: CAKI-1 > 100 µM | CCRF-CEM 12.1 µM | COLO 205 > 100 µM | Hs-578T > 100 µM | LOX IMVI > 100 µM | MDA-MB-231 > 100 µM | MOLT-4 > 29.4 µM | NCI/ADR-RES > 100 µM | OVCAR-4 > 100 µM | OVCAR-8 > 91.2 µM | RPMI-8226 > 100 µM | RXF 393 > 100 µM | SK-MEL-28 > 100 µM | SK-MEL-2 > 100 µM | SK-OV-3 > 100 µM | SNB-19 > 100 µM | SW-620 > 100 µM | UACC-257 > 100 µM

Nc1ccc(CCN2CCN(c3cccc(C(F)(F)F)c3)CC2)cc1
inactive: CAKI-1 > 100 µM | CCRF-CEM 5.07 µM | COLO 205 > 100 µM | HCC 2998 17.3 µM | LOX IMVI > 100 µM | MOLT-4 4.38 µM | OVCAR-8 > 100 µM | RPMI-8226 45.2 µM | RXF 393 89.5 µM | SK-MEL-28 > 100 µM | SK-OV-3 > 100 µM | SNB-19 > 100 µM | UACC-257 47 µM

O=C(N/C(=C\c1ccc([N+](=O)[O-])cc1)c1nc2ccccc2s1)c1ccccc1
inactive: CAKI-1 31 µM | CCRF-CEM 19.1 µM | COLO 205 58.3 µM | HCC 2998 57.4 µM | LOX IMVI 20 µM | MOLT-4 19.1 µM | OVCAR-4 29.9 µM | OVCAR-8 24.6 µM | RPMI-8226 19.2 µM | RXF 393 28.6 µM | SK-MEL-28 39.5 µM | SK-MEL-2 23.7 µM | SK-OV-3 > 100 µM | SNB-19 32.8 µM | SW-620 26.7 µM | UACC-257 28.1 µM

COc1cc2cc3c4c(cc(OC)c(OC)c4c2cc1OC)CCN3C(=O)CCCC(=O)O
inactive: CAKI-1 > 100 µM | CCRF-CEM > 100 µM | COLO 205 > 100 µM | HCC 2998 > 100 µM | LOX IMVI > 100 µM | MOLT-4 > 100 µM | OVCAR-4 34.8 µM | RPMI-8226 > 100 µM | RXF 393 > 100 µM | SK-MEL-28 > 100 µM | SK-MEL-2 > 100 µM | SK-OV-3 > 100 µM | SNB-19 > 100 µM | SW-620 > 100 µM | UACC-257 > 100 µM

Cc1nn(-c2ccccc2)c(S)c1C(=O)c1ccccc1
inactive: CAKI-1 > 100 µM | CCRF-CEM 20.5 µM | COLO 205 89.3 µM | HCC 2998 29.8 µM | LOX IMVI 53.6 µM | MOLT-4 24.4 µM | OVCAR-4 40.7 µM | OVCAR-8 14.9 µM | RPMI-8226 19.1 µM | RXF 393 3.41 µM | SK-MEL-28 33.5 µM | SK-MEL-2 > 100 µM | SK-OV-3 > 100 µM | SNB-19 41 µM | SW-620 32.6 µM | UACC-257 76.2 µM

COc1ccc(NC(=O)C2=CC(=O)c3ccc(O)cc3C2=O)c(OC)c1
inactive: CAKI-1 > 100 µM | CCRF-CEM > 100 µM | COLO 205 > 100 µM | HCC 2998 > 100 µM | LOX IMVI > 100 µM | MOLT-4 > 100 µM | OVCAR-4 > 100 µM | OVCAR-8 > 100 µM | RPMI-8226 > 100 µM | RXF 393 > 100 µM | SK-MEL-28 > 100 µM | SNB-19 > 100 µM | SW-620 > 100 µM | UACC-257 > 100 µM

O=[N+]([O-])c1ccc(-c2nc(/C=N/N3CCCCC3)cs2)o1
inactive: CAKI-1 > 100 µM | COLO 205 30.2 µM | Hs-578T > 100 µM | MDA-MB-231 48.4 µM | MOLT-4 26.5 µM | NCI/ADR-RES 74.8 µM | OVCAR-4 23.6 µM | OVCAR-8 92 µM | RPMI-8226 19.1 µM | RXF 393 > 100 µM | SK-MEL-28 31.6 µM | SK-MEL-2 > 100 µM | SK-OV-3 > 100 µM | SNB-19 > 100 µM | SW-620 > 100 µM | UACC-257 19.3 µM

CC(=O)Oc1c(-c2ccccc2)sc2ccccc12
inactive: CAKI-1 1.33 µM | CCRF-CEM 18 µM | COLO 205 15.6 µM | HCC 2998 17.1 µM | Hs-578T 19.6 µM | LOX IMVI 13.5 µM | MDA-MB-231 14 µM | MOLT-4 14.7 µM | NCI/ADR-RES 18.2 µM | OVCAR-4 23 µM | OVCAR-8 27.2 µM | RPMI-8226 1.61 µM | RXF 393 13.6 µM | SK-MEL-28 21.3 µM | SK-MEL-2 13.3 µM | SNB-19 34.4 µM | SW-620 36.1 µM | UACC-257 12.5 µM

CCCCC(C(=O)C(=O)Nc1ccc(C)cc1C)C(=O)C(C)C (stereo unspecified)
inactive: CAKI-1 > 100 µM | HCC 2998 > 100 µM | LOX IMVI > 100 µM | MOLT-4 > 100 µM | OVCAR-4 > 100 µM | OVCAR-8 > 100 µM | RPMI-8226 > 100 µM | RXF 393 > 100 µM | SK-MEL-28 > 100 µM | SK-MEL-2 > 100 µM | SNB-19 > 100 µM | SW-620 > 100 µM | UACC-257 > 100 µM

Cc1ccccc1C1SCc2nc3ccccc3n21 (stereo unspecified)
inactive: CAKI-1 > 100 µM | CCRF-CEM > 100 µM | COLO 205 > 100 µM | HCC 2998 > 100 µM | OVCAR-8 > 100 µM | RPMI-8226 5.85 µM | RXF 393 > 100 µM | SK-MEL-28 23.6 µM | SK-MEL-2 > 100 µM | SK-OV-3 > 100 µM | SNB-19 > 100 µM | UACC-257 4.26 µM

CC(=O)NC(CCCNC(=O)N(CCCl)N=O)C(=O)NCc1ccccc1 (stereo unspecified)
inactive: CAKI-1 > 100 µM | CCRF-CEM 46.3 µM | COLO 205 > 100 µM | HCC 2998 > 100 µM | MOLT-4 38.5 µM | OVCAR-4 > 100 µM | OVCAR-8 > 100 µM | RPMI-8226 > 100 µM | RXF 393 > 100 µM | SK-MEL-28 > 100 µM | SK-MEL-2 > 100 µM | SNB-19 22.6 µM | SW-620 > 100 µM | UACC-257 > 100 µM

O=C(CC1C(=O)c2ccccc2C1=C1C(=O)c2ccccc2C1=O)c1ccccc1 (stereo unspecified)
inactive: CAKI-1 > 100 µM | CCRF-CEM 32 µM | COLO 205 37.2 µM | HCC 2998 > 100 µM | LOX IMVI > 100 µM | MOLT-4 77.3 µM | OVCAR-4 77.6 µM | OVCAR-8 > 100 µM | RPMI-8226 > 100 µM | RXF 393 > 100 µM | SK-MEL-28 > 100 µM | SK-MEL-2 > 100 µM | SK-OV-3 > 100 µM | SNB-19 > 100 µM | SW-620 > 100 µM | UACC-257 > 100 µM

CC12Oc3ccc4ccccc4c3CC1Cc1c(ccc3ccccc13)O2 (stereo unspecified)
inactive: CAKI-1 48 µM | COLO 205 > 100 µM | HCC 2998 > 100 µM | LOX IMVI 56.2 µM | OVCAR-4 26.5 µM | OVCAR-8 49.7 µM | RXF 393 27.2 µM | SK-MEL-28 > 100 µM | SK-MEL-2 48 µM | SNB-19 45.5 µM | SW-620 > 100 µM | UACC-257 50.4 µM

N=C(N)/N=C(/C=C/c1ccccc1)CC1OC(=O)c2ccccc21 (stereo unspecified)
inactive: CAKI-1 > 100 µM | CCRF-CEM 86.9 µM | COLO 205 > 100 µM | HCC 2998 > 100 µM | LOX IMVI > 100 µM | MOLT-4 > 100 µM | OVCAR-4 > 100 µM | OVCAR-8 > 100 µM | RPMI-8226 > 100 µM | RXF 393 > 100 µM | SK-MEL-2 > 100 µM | SNB-19 > 100 µM | SW-620 > 100 µM | UACC-257 > 100 µM

NC(=O)CNC(=O)C1CCCN1C(=O)C1CCCCNOC(=O)CCC(NC(=O)OCC2c3ccccc3-c3ccccc32)C(=O)NC(Cc2c[nH]c3ccccc23)C(=O)N1 (stereo unspecified) (Fmoc-EW[X36]PG-NH2; ester 1-3; configuration not given here)
inactive: CCRF-CEM > 100 µM | COLO 205 > 100 µM | HCC 2998 > 100 µM | Hs-578T > 100 µM | LOX IMVI > 100 µM | MDA-MB-231 15.2 µM | MOLT-4 > 100 µM | NCI/ADR-RES > 100 µM | OVCAR-4 > 100 µM | OVCAR-8 > 100 µM | RPMI-8226 > 100 µM | RXF 393 > 100 µM | SK-MEL-28 > 100 µM | SK-MEL-2 > 100 µM | SK-OV-3 63.4 µM | SNB-19 > 100 µM | SW-620 > 100 µM | UACC-257 > 100 µM

COc1ccc(OC)c(/C=C/C(=O)C(C)(C)C)c1
inactive: CAKI-1 20.6 µM | CCRF-CEM 14.3 µM | COLO 205 19 µM | HCC 2998 23.2 µM | LOX IMVI 21.1 µM | MOLT-4 13.6 µM | OVCAR-4 22.6 µM | OVCAR-8 15.7 µM | RPMI-8226 13.3 µM | RXF 393 18.5 µM | SK-MEL-28 17.2 µM | SK-MEL-2 > 10 µM | SK-OV-3 37.2 µM | SNB-19 17.2 µM | SW-620 14.5 µM
